Reference: ChEMBL document CHEMBL1126629 (J Med Chem, 1993)

Legend:
[1] = target: Sodium-dependent serotonin transporter (Homo sapiens, UniProt P31645); assay: Ability to inhibit [3H]citalopram binding to serotonin transporter in cynomolgus monkey striatum; assay type: tissue-based, Cercopithecidae; settings: target entry is the homologue from another species
[2] = Selectivity ratio is IC 50 value of dopamine receptor to that of serotonin 5-HT

Sequence of Sodium-dependent serotonin transporter (P31645 whole entry): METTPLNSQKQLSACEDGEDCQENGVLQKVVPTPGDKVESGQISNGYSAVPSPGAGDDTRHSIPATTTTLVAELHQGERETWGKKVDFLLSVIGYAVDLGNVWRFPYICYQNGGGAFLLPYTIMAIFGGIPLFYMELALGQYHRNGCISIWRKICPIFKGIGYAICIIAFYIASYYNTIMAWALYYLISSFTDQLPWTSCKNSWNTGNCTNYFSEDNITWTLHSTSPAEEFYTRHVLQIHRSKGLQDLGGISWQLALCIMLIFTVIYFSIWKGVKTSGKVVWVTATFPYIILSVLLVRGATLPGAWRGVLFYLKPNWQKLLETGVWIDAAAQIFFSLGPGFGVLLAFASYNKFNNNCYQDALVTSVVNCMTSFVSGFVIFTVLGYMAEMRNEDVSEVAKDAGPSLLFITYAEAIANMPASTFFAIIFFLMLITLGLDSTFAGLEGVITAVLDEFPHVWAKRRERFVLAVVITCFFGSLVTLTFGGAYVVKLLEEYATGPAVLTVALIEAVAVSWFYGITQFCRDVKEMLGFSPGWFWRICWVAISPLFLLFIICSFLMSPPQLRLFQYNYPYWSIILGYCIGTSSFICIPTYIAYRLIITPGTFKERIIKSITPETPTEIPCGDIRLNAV

COC(=O)C1C2CCC(CC1c1ccc(Cl)c(Cl)c1)N2 (configuration not stated)
IC50 [1]: 1.4 nM

COC(=O)C1C(c2cccc(I)c2)CC2CCC1N2C (configuration not stated)
IC50 [1]: 9.88 nM | Selectivity ratio [2]: 0.4

COC(=O)[C@H]1[C@@H](c2ccc(F)cc2)C[C@H]2CC[C@H]1N2C
IC50 [1]: 160 nM

COC(=O)C1C(c2ccc(I)cc2)CC2CCC1N2C (configuration not stated)
IC50 [1]: 2.53 nM | Selectivity ratio [2]: 2

COC(=O)C1C(c2cccc(Br)c2)CC2CCC1N2C (configuration not stated)
IC50 [1]: 20.4 nM | Selectivity ratio [2]: 3

COC(=O)C1C(c2ccc(Cl)c(Cl)c2)CC2CCC1N2C (configuration not stated)
IC50 [1]: 2.47 nM | Selectivity ratio [2]: 2

COC(=O)C1C2CCC(CC1c1ccc(Cl)cc1)N2 (configuration not stated)
IC50 [1]: 1.63 nM | Selectivity ratio [2]: 1
